Results published in patent publication US8178522B2, “Thiazoles” (Hoffmann-La Roche Inc., priority 2009, dated 2012).

Biological target: T1, GABA A α5 (α5β3γ2) (Homo sapiens, UniProt P18507+P31644)
T1 construct: expressed in transfected cells; host or cells: HEK293, transiently transfected; membrane preparation
Assay: [3H]flumazenil competition binding, human GABA A α5 receptor
Settings: human receptor α5β3γ2 transiently transfected in HEK293 cells; competition for [3H]flumazenil 0.5 nM; 1 hour at 4° C.; means of two determinations; read-out: hKi GABA A α5
Protocol: Membrane Preparation and Binding Assay
The affinity of compounds at GABA A receptor subtypes was measured by competition for [3H]flumazenil (85 Ci/mmol; Roche) binding to HEK293 cells expressing rat (stably transfected) or human (transiently transfected) receptors of compositional α1β3γ2, α2β3γ2, α3β3γ2 and α5β3γ2.
Cell pellets were suspended in Krebs-tris buffer (4.8 mM KCl, 1.2 mM CaCl2, 1.2 mM MgCl2, 120 mM NaCl, 15 mM Tris; pH 7.5; binding assay buffer), homogenized by polytron for ca. 20 sec on ice and centrifuged for 60 min at 4° C. (50000 g; Sorvall, rotor: SM24=20000 rpm). The cell pellets were re-suspended in Krebs-tris buffer and homogenized by polytron for ca. 15 sec on ice. Protein was measured (Bradford method, Bio-Rad) and aliquots of 1 mL were prepared and stored at −80° C.
Assays were incubated to equilibrium for 1 hour at 4° C. and harvested onto GF/C uni-filters (Packard) by filtration using a Packard harvester and washing with ice-cold wash buffer (50 mM Tris; pH 7.5). After drying, filter-retained radioactivity was detected by liquid scintillation counting. Ki values were calculated using Excel-Fit (Microsoft) and are the means of two determinations.

SMILES | Ki [nM]
Cc1nc(/C=C/c2conc2-c2ccc(F)cn2)sc1C(=O)NCC1CC1 [Example 92, 2-{(E)-2-[3-(5-Fluoro-pyridin-2-yl)-isoxazol-4-yl]-vinyl}-4-methyl-thiazole-5-carboxylic acid cyclopropylmethyl-amide] | 40.4
Cc1onc(-c2ccccn2)c1CCc1ncc(C(=O)NCCO)s1 [Example 29, 2-[2-(5-Methyl-3-pyridin-2-yl-isoxazol-4-yl)-ethyl]-thiazole-5-carboxylic acid (2-hydroxy-ethyl)-amide] | 32.4
Cc1nc(/C=C/c2c(-c3ccccc3)noc2C)sc1C(=O)NCCO [Example 70, 4-Methyl-2-[(E)-2-(5-methyl-3-phenyl-isoxazol-4-yl)-vinyl]-thiazole-5-carboxylic acid (2-hydroxy-ethyl)-amide] | 0.5
CCCCc1noc(C)c1CCc1nc(C)c(C(=O)NCC(C)O)s1 (stereo not shown) [Example 56, 2-[2-(3-Butyl-5-methyl-isoxazol-4-yl)-ethyl]-4-methyl-thiazole-5-carboxylic acid (2-hydroxy-propyl)-amide] | 16.9
Cc1nc(CCc2c(-c3ccc(F)cn3)noc2C)sc1C(=O)NCCO [Example 36, 2-{2-[3-(5-Fluoro-pyridin-2-yl)-5-methyl-isoxazol-4-yl]-ethyl}-4-methyl-thiazole-5-carboxylic acid (2-hydroxy-ethyl)-amide] | 14
Cc1nc(CCc2c(-c3ccccn3)noc2C)sc1C(=O)NCC(F)(F)F [Example 13, 4-Methyl-2-[2-(5-methyl-3-pyridin-2-yl-isoxazol-4-yl)-ethyl]-thiazole-5-carboxylic acid (2,2,2-trifluoro-ethyl)-amide] | 4.2
Cc1onc(-c2ccc(F)cn2)c1CCc1ncc(C(=O)NCC2CC2)s1 [Example 43, 2-{2-[3-(5-Fluoro-pyridin-2-yl)-5-methyl-isoxazol-4-yl]-ethyl}-thiazole-5-carboxylic acid cyclopropylmethyl-amide] | 18.6
Cc1nc(CCc2conc2-c2ccccn2)sc1C(=O)NCC(F)(F)F [Example 20, 4-Methyl-2-[2-(3-pyridin-2-yl-isoxazol-4-yl)-ethyl]-thiazole-5-carboxylic acid (2,2,2-trifluoro-ethyl)-amide] | 90.5
Cc1onc(-c2ccccn2)c1CCc1ncc(C(=O)NCC2CC2)s1 [Example 26, 2-[2-(5-Methyl-3-pyridin-2-yl-isoxazol-4-yl)-ethyl]-thiazole-5-carboxylic acid cyclo-propylmethyl-amide] | 34.7
CCCCc1noc(C)c1/C=C/c1nc(C)c(C(=O)NC(CO)CO)s1 [Example 98, 2-[(E)-2-(3-Butyl-5-methyl-isoxazol-4-yl)-vinyl]-4-methyl-thiazole-5-carboxylic acid (2-hydroxy-1-hydroxymethyl-ethyl)-amide] | 1.9
Cc1nc(CCc2c(-c3ccccn3)noc2C)sc1C(=O)NCC1CC1 [Example 12, 4-Methyl-2-[2-(5-methyl-3-pyridin-2-yl-isoxazol-4-yl)-ethyl]-thiazole-5-carboxylic acid cyclopropylmethyl-amide] | 13.4
Cc1nc(CCc2c(-c3ccccn3)noc2C)sc1C(N)=O [Example 18, 4-Methyl-2-[2-(5-methyl-3-pyridin-2-yl-isoxazol-4-yl)-ethyl]-thiazole-5-carboxylic acid amide] | 32.3
CCCCc1noc(C)c1/C=C/c1nc(C)c(C(=O)NC2CC2)s1 [Example 113, 2-[(E)-2-(3-Butyl-5-methyl-isoxazol-4-yl)-vinyl]-4-methyl-thiazole-5-carboxylic acid cyclopropylamide] | 5.1
Cc1nc(CCc2c(-c3ccccn3)noc2C)sc1C(=O)NC1CC1 [Example 11, 4-Methyl-2-[2-(5-methyl-3-pyridin-2-yl-isoxazol-4-yl)-ethyl]-thiazole-5-carboxylic acid cyclopropylamide] | 7.7
CCCCc1noc(C)c1/C=C/c1nc(C)c(C(=O)NC2CCCC2O)s1 (stereo in doubt) [Example 114, 2-[(E)-2-(3-Butyl-5-methyl-isoxazol-4-yl)-vinyl]-4-methyl-thiazole-5-carboxylic acid ((1R,2R)-2-hydroxy-cyclopentyl)-amide] | 6.4
CNC(=O)c1sc(CCc2c(-c3ccccn3)noc2C)nc1C [Example 16, 4-Methyl-2-[2-(5-methyl-3-pyridin-2-yl-isoxazol-4-yl)-ethyl]-thiazole-5-carboxylic acid methylamide] | 21.3
Cc1nc(CCc2c(-c3ccccc3)noc2C)sc1C(=O)NC(C)CO (racemic) [Example 3, Rac-4-Methyl-2-[2-(5-methyl-3-phenyl-isoxazol-4-yl)-ethyl]-thiazole-5-carboxylic acid (2-hydroxy-1-methyl-ethyl)-amide] | 7.9

SMILES | Ki [nM]
Cc1nc(CCc2c(-c3ccccc3)noc2C)sc1C(N)=O [Example 6, 4-Methyl-2-[2-(5-methyl-3-phenyl-isoxazol-4-yl)-ethyl]thiazole-5-carboxylic acid amide] | 33.7
Cc1onc(-c2ccc(F)cn2)c1/C=C/c1ncc(C(=O)NC2CCOCC2)s1 [Example 77, 2-{(E)-2-[3-(5-Fluoro-pyridin-2-yl)-5-methyl-isoxazol-4-yl]-vinyl}-thiazole-5-carboxylic acid (tetrahydro-pyran-4-yl)-amide] | 3.5
CCCCc1noc(C)c1COc1ncc(C(=O)NCCO)s1 [Example 134, 2-(3-Butyl-5-methyl-isoxazol-4-ylmethoxy)-thiazole-5-carboxylic acid (2-hydroxy-ethyl)-amide] | 21.5
CCCCc1noc(C)c1CCc1nc(C)c(C(=O)N[C@@H](C)CO)s1 [Example 54, 2-[2-(3-Butyl-5-methyl-isoxazol-4-yl)-ethyl]-4-methyl-thiazole-5-carboxylic acid ((S)-2-hydroxy-1-methyl-ethyl)-amide] | 15.9
Cc1onc(-c2ccccc2)c1COc1ncc(C(=O)NC(C)(C)CO)s1 [Example 131, 2-(5-Methyl-3-phenyl-isoxazol-4-ylmethoxy)-thiazole-5-carboxylic acid (2-hydroxy-1,1-dimethyl-ethyl)-amide] | 12.7
CCCCc1noc(C)c1/C=C/c1nc(C)c(C(=O)O)s1 [Example 99, 2-[(E)-2-(3-Butyl-5-methyl-isoxazol-4-yl)-vinyl]-4-methyl-thiazole-5-carboxylic acid] | 27.6
Cc1onc(-c2ccccc2)c1CCc1ncc(C(=O)NC(C)C)s1 [Example 7, 2-[2-(5-Methyl-3-phenyl-isoxazol-4-yl)-ethyl]-thiazole-5-carboxylic acid isopropyl-amide] | 13.8
Cc1nc(/C=C/c2conc2-c2ccc(F)cn2)sc1C(=O)NC1CCOCC1 [Example 90, 2-{(E)-2-[3-(5-Fluoro-pyridin-2-yl)-isoxazol-4-yl]-vinyl}-4-methyl-thiazole-5-carboxylic acid (tetrahydro-pyran-4-yl)-amide] | 24.8
Cc1nc(CCc2c(-c3ccccc3)noc2C)sc1C(=O)NC1CCOCC1 [Example 5, 4-Methyl-2-[2-(5-methyl-3-phenyl-isoxazol-4-yl)-ethyl]-thiazole-5-carboxylic acid (tetrahydro-pyran-4-yl)-amide] | 8.2
Cc1onc(-c2ccc(F)cn2)c1/C=C/c1ncc(C(=O)NC(C)(C)CO)s1 [Example 80, 2-{(E)-2-[3-(5-Fluoro-pyridin-2-yl)-5-methyl-isoxazol-4-yl]-vinyl}-thiazole-5-carboxylic acid (2-hydroxy-1,1-dimethyl-ethyl)-amide] | 17.4
CCOC(=O)c1cnc(OCc2c(-c3ccccc3)noc2C)s1 [Example 126, 2-(5-Methyl-3-phenyl-isoxazol-4-ylmethoxy)-thiazole-5-carboxylic acid ethyl ester] | 16.8
Cc1onc(-c2ccccc2)c1COc1ncc(C(=O)NC(C)C)s1 [Example 127, 2-(5-Methyl-3-phenyl-isoxazol-4-ylmethoxy)-thiazole-5-carboxylic acid isoprop-ylamide] | 2.2
CCCCc1noc(C)c1/C=C/c1ncc(C(=O)NCCO)s1 [Example 125, 2-[(E)-2-(3-Butyl-5-methyl-isoxazol-4-yl)-vinyl]-thiazole-5-carboxylic acid (2-hydroxy-ethyl)-amide] | 6.6
CCCCc1noc(C)c1CCc1ncc(C(=O)NC(C)C)s1 [Example 57, 2-[2-(3-Butyl-5-methyl-isoxazol-4-yl)-ethyl]-thiazole-5-carboxylic acid isopropylamide] | 39.2
CCNC(=O)c1cnc(/C=C/c2c(-c3ccc(F)cn3)noc2C)s1 [Example 87, 2-{(E)-2-[3-(5-Fluoro-pyridin-2-yl)-5-methyl-isoxazol-4-yl]-vinyl}-thiazole-5-carboxylic acid ethylamide] | 4
CNC(=O)c1sc(CCc2c(-c3ccc(F)cn3)noc2C)nc1C [Example 39, 2-{2-[3-(5-Fluoro-pyridin-2-yl)-5-methyl-isoxazol-4-yl]-ethyl}-4-methyl-thiazole-5-carboxylic acid methylamide] | 25.3
Cc1onc(-c2ccccc2)c1COc1ncc(C(=O)NC2CCOCC2)s1 [Example 128, 2-(5-Methyl-3-phenyl-isoxazol-4-ylmethoxy)-thiazole-5-carboxylic acid (tetrahydro-pyran-4-yl)-amide] | 1.8
